{"source": "ChEMBL document CHEMBL3045199", "about": "“Synthesis of some (E)-6-[2-(furan-2-yl)ethenyl]-1,2,4-triazin-5-ones and their biological evaluation as antitumor agents” (2013)", "format_in_all_cases": "functional", "key": {"[1]": {"tested_on": "ACHN", "experiment": "Cytotoxicity against Homo sapiens (human) ACHN cells assessed as growth inhibition at 10 uM after 24 hr", "details": "read-out: GI"}, "[2]": {"tested_on": "RPMI-8226", "experiment": "Cytotoxicity against Homo sapiens (human) RPMI8226 cells assessed as growth inhibition at 10 uM after 24 hr", "details": "RPMI-8226, 24 h, read-out: GI"}, "[3]": {"tested_on": "UACC-257", "experiment": "Cytotoxicity against Homo sapiens (human) UACC257 cells assessed as growth inhibition at 10 uM after 24 hr", "details": "UACC-257, 24 h, read-out: GI"}, "[4]": {"tested_on": "HL-60(TB)", "experiment": "Cytotoxicity against Homo sapiens (human) HL-60(TB) cells assessed as growth inhibition at 10 uM after 24 hr", "details": "HL-60, 24 h, read-out: GI"}, "[5]": {"tested_on": "HCC 2998", "experiment": "Cytotoxicity against Homo sapiens (human) HCC2998 cells assessed as growth inhibition at 10 uM after 24 hr", "details": "HCC 2998, 24 h, read-out: GI"}, "[6]": {"tested_on": "SK-MEL-28", "experiment": "Cytotoxicity against Homo sapiens (human) SK-MEL-28 cells assessed as growth inhibition at 10 uM after 24 hr", "details": "SK-MEL-28, 24 h, read-out: GI"}, "[7]": {"tested_on": "KM12", "experiment": "Cytotoxicity against Homo sapiens (human) KM12 cells assessed as growth inhibition at 10 uM after 24 hr", "details": "KM12, 24 h, read-out: GI"}, "[8]": {"tested_on": "MDA-MB-435", "experiment": "Cytotoxicity against Homo sapiens (human) MDA-MB-435 cells assessed as growth inhibition at 10 uM after 24 hr", "details": "MDA-MB-435, 24 h, read-out: GI"}, "[9]": {"tested_on": "IGROV-1", "experiment": "Cytotoxicity against Homo sapiens (human) IGROV1 cells assessed as growth inhibition at 10 uM after 24 hr", "details": "IGROV-1, 24 h, read-out: GI"}, "[10]": {"tested_on": "T47D", "experiment": "Cytotoxicity against Homo sapiens (human) T47D cells assessed as growth inhibition at 10 uM after 24 hr", "details": "read-out: GI"}, "[11]": {"tested_on": "CAKI-1", "experiment": "Cytotoxicity against Homo sapiens (human) Caki1 cells assessed as growth inhibition at 10 uM after 24 hr", "details": "CAKI-1, 24 h, read-out: GI"}, "[12]": {"tested_on": "OVCAR-5", "experiment": "Cytotoxicity against Homo sapiens (human) OVCAR5 cells assessed as growth inhibition at 10 uM after 24 hr", "details": "OVCAR-5, 24 h, read-out: GI"}}, "data": [{"smiles": "Nc1cc(-c2ccc(Cl)cc2)nn1-c1nc(=O)c(/C=C/c2ccco2)n[nH]1", "values": [{"measurement": "inhibition of growth at 10 µM", "setting": "[1]", "value": 70.6, "unit": "%"}, {"measurement": "inhibition of growth at 10 µM", "setting": "[2]", "value": 56.7, "unit": "%"}, {"measurement": "inhibition of growth at 10 µM", "setting": "[3]", "value": 30.4, "unit": "%"}, {"measurement": "inhibition of growth at 10 µM", "setting": "[4]", "value": 4.83, "unit": "%"}, {"measurement": "inhibition of growth at 10 µM", "setting": "[5]", "value": 51.5, "unit": "%"}, {"measurement": "inhibition of growth at 10 µM", "setting": "[6]", "value": 33.6, "unit": "%"}, {"measurement": "inhibition of growth at 10 µM", "setting": "[7]", "value": 44, "unit": "%"}, {"measurement": "inhibition of growth at 10 µM", "setting": "[8]", "value": 37.2, "unit": "%"}, {"measurement": "inhibition of growth at 10 µM", "setting": "[9]", "value": 65, "unit": "%"}, {"measurement": "inhibition of growth at 10 µM", "setting": "[10]", "value": 37.3, "unit": "%"}, {"measurement": "inhibition of growth at 10 µM", "setting": "[11]", "value": 99, "unit": "%"}, {"measurement": "inhibition of growth at 10 µM", "setting": "[12]", "value": 39.1, "unit": "%"}]}]}
